{"source": "patent US9414596B2", "about": "“Metalloenzyme inhibitor compounds” (Viamet Pharmaceuticals, Inc., priority 2012, dated 2016)"}
{"test_system": "C. albicans", "assay": "Minimum Inhibitory Concentration (MIC) (C. albicans), CLSI M27-A2", "type": "cell-based", "settings": "Candida albicans, 48 h, C. albicans; approximately 48 h at 35±1° C.; MIC = about 50% growth reduction, visual; read-out: Candida MIC Rating", "experimental": "(§1) A. Minimum Inhibitory Concentration (MIC) (C. albicans) Compounds of the present disclosure were assessed for their ability to inhibit the growth of common strains of fungus, C. albicans using a standardized procedure (CLSI M27-A2). Stock solutions of the test compounds and standards were prepared in DMSO at 1,600 μg/mL (C. albicans). Eleven, serial, one-half dilutions of compounds were prepared in 96-well plates in RPMI+MOPS. The assay concentration ranges were 8-0.001 μg/mL (C. albicans). Cell suspensions of C. albicans were prepared and added to each well at concentrations of approximately 3.7×10^3 colony-forming-units per milliliter (cfu/mL). All testing was in duplicate. The inoculated plates were incubated for approximately 48 h at 35±1° C. At the completion of incubation the wells of each plate were evaluated visually for the presence of fungal growth. […] For QC purposes C. krusei isolate ATCC 6258 (4.0×10^3 cfu/mL) was included in the VOR assay.", "units": {"MIC": "µg/mL"}}
{"smiles": "CC(F)(c1ccc(-c2ccc(F)cc2)cn1)[C@](O)(Cn1cnnn1)c1ccc(F)cc1F", "note": "(stereo in doubt) [Example 50, 2-(2,4-Difluorophenyl)-3-fluoro-3-(5-(4-fluorophenyl)pyridin-2-yl)-1-(1H-tetrazol-1-yl)butan-2-ol]", "MIC": "1.5 to 4"}
{"smiles": "O=P(O)(O)OC(Cn1cnnn1)(c1ccc(F)cc1F)C(F)(F)c1ccc(-c2ccc(OCC(F)(F)F)cc2)cn1", "note": "(stereo not shown) [Example 58, 2-(2,4-difluorophenyl)-1,1-difluoro-3-(1H-tetrazol-1-yl)-1-(5-(4-(2,2,2-trifluoroethoxy)phenyl)pyridin-2-yl)propan-2-yl dihydrogen phosphate]", "MIC": "< 0.5"}
{"test_system": "C. albicans", "assay": "Minimum Inhibitory Concentration (MIC) (C. albicans), CLSI M27-A2", "type": "cell-based", "settings": "Candida albicans, 48 h; read-out: Candida MIC Rating", "experimental": "as §1", "units": {"MIC": "µg/mL"}}
{"smiles": "OC(Cn1cnnn1)(c1ccc(F)cc1F)C(F)(F)c1ccc(-c2ccc(OCC(F)(F)C(F)(F)F)cc2)cn1", "note": "(stereo not shown) [Example 12, 2-(2,4-Difluorophenyl)-1,1-difluoro-1-(5-(4-(2,2,3,3,3-pentafluoropropoxy)phenyl)pyridin-2-yl)-3-(1H-tetrazol-1-yl)propan-2-ol]", "MIC": "< 0.5"}
{"smiles": "OC(Cc1cc[nH]n1)(c1ccc(F)cc1F)C(F)(F)c1ccc(-c2ccc(OC(F)(F)F)cc2)cn1", "note": "(stereo not shown) [Example 15, 2-(2,4-Difluorophenyl)-1,1-difluoro-3-(1H-pyrazol-3-yl)-1-(5-(4-(trifluoromethoxy)phenyl)-pyridin-2-yl)propan-2-ol]", "MIC": "< 0.5"}
{"test_system": "Septoria tritici (ATCC 26517)", "assay": "Minimum Inhibitory Concentration (MIC) (Septoria tritici), CLSI-based microdilution", "type": "cell-based", "settings": "S. tritici ATCC 26517; seven days at 22° C. in the dark; MIC = 50% reduction in growth, visual", "experimental": "(§2) B. Minimum Inhibitory Concentration (MIC) (Septoria tritici)\n(§3) Compounds of the present disclosure were assessed for their ability to inhibit the growth of a common strain of the fungal plant pathogen Septoria tritici (ATCC 26517) using a procedure based on a Clinical and Laboratory Standards Institute (CLSI) microdilution assay protocol for filamentous fungi.\n(§4) Stock solutions of the test compounds and standards were prepared in DMSO at 6400 μg/mL. Each stock solution was used to prepare a 2-fold dilution series ranging from 16 to 0.016 μg/mL (total of 11 compound concentrations) in RPMI-1640 (Roswell Park Memorial Institute) medium containing 3-(N-morpholino)propanesulfonic acid (MOPS) buffer and 2% DMSO. A 100 μL aliquot of the dilutions was added to columns 1 (16 μg/mL compound) through 11 (0.016 μg/mL compound) of a 96-well microtiter plate. This format was replicated in a second row of the microtiter plate. Thus, each microtiter plate could include 11 concentrations of four test or control compounds replicated twice. A 100 μL aliquot of RPMI-1640/MOPS/2% DMSO medium was added to column 12 (no compound control) of the microtiter plate.\n(§5) A fresh culture of S. tritici was used to prepare a solution of approximately 5×10^4 colony-forming units per milliliter (cfu/mL) in RPMI/MOPS medium without DMSO. A 100 μL aliquot of this solution was added to all 96 wells in the microtiter plate. […] The assay plates were incubated at 22° C. for seven days in the dark without shaking."}
{"smiles": "CC(F)(c1ccc(-c2ccc(OC(F)(F)F)cc2)cn1)C(O)(Cn1cnnn1)c1ccc(F)cc1F", "note": "(stereo not shown) [Example 47, 2-(2,4-Difluorophenyl)-3-fluoro-1-(1H-tetrazol-1-yl)-3-(5-(4-(trifluoromethoxy)phenyl)-pyridin-2-yl)butan-2-ol]", "Septoria MIC Rating": "B (>0.5-1.5)"}
{"test_system": "Septoria tritici (ATCC 26517)", "assay": "Minimum Inhibitory Concentration (MIC) (Septoria tritici), CLSI-based microdilution", "type": "cell-based", "settings": "Zymoseptoria tritici, ATCC26517, 168 h, S. tritici ATCC 26517; seven days at 22° C. in the dark; MIC = 50% reduction in growth, visual; read-out: Septoria MIC Rating", "experimental": "as §2, §3, §4, §5", "units": {"MIC": "µg/mL"}}
{"smiles": "OC(Cn1cnnn1)(c1ccc(F)cc1F)C(F)(F)c1ccc(-c2ccc(CC(F)(F)F)cc2)cn1", "note": "(stereo not shown) [Example 41, 2-(2,4-Difluorophenyl)-1,1-difluoro-3-(1H-tetrazol-1-yl)-1-(5-(4-(2,2,2-trifluoroethyl)phenyl)pyridin-2-yl)propan-2-ol]", "MIC": "< 0.5"}
{"smiles": "CNC(=O)c1ccc(-c2ccc(C(F)(F)C(O)(Cn3cnnn3)c3ccc(F)cc3F)nc2)cc1", "note": "(stereo not shown) [Example 42, 4-(6-(2-(2,4-Difluorophenyl)-1,1-difluoro-2-hydroxy-3-(1H-tetrazol-1-yl)propyl)pyridin-3-yl)-N-methylbenzamide]", "MIC": "> 4"}
{"smiles": "OC(Cn1cnnn1)(c1ccc(F)cc1F)C(F)(F)c1ccc(-c2ccc(OCCC(F)(F)F)cc2)cn1", "note": "(stereo not shown) [Example 44, 2-(2,4-Difluorophenyl)-1,1-difluoro-3-(1H-tetrazol-1-yl)-1-(5-(4-(3,3,3-trifluoropropoxy)phenyl)pyridin-2-yl)propan-2-ol]", "MIC": "0.5 to 1.5"}
{"smiles": "OC(Cn1cnnn1)(c1ccc(F)cc1F)C(F)(F)c1ccc(-c2ccc(SCC(F)(F)F)cc2)cn1", "note": "(stereo not shown) [Example 45, 2-(2,4-Difluorophenyl)-1,1-difluoro-3-(1H-tetrazol-1-yl)-1-(5-(4-((2,2,2-trifluoroethyl)thio)phenyl)pyridin-2-yl)propan-2-ol]", "MIC": "< 0.5"}
{"smiles": "CC(F)(c1ccc(-c2ccc(OC(F)(F)F)cc2)cn1)C(O)(Cn1cnnn1)c1ccc(F)cc1F", "note": "(stereo not shown) [Example 46, 2-(2,4-Difluorophenyl)-3-fluoro-1-(1H-tetrazol-1-yl)-3-(5-(4-(trifluoromethoxy)phenyl)-pyridin-2-yl)butan-2-ol]", "MIC": "< 0.5"}
{"smiles": "CC(F)(c1ccc(-c2ccc(C(F)(F)F)cc2)cn1)C(O)(Cn1cnnn1)c1ccc(F)cc1F", "note": "(stereo not shown) [Example 53, 2-(2,4-Difluorophenyl)-3-fluoro-1-(1H-tetrazol-1-yl)-3-(5-(4-(trifluoromethyl)phenyl)pyridin-2-yl)butan-2-ol]", "MIC": "1.5 to 4"}
{"smiles": "CC(F)(c1ccc(-c2ccc(Cl)cc2)cn1)C(O)(Cn1cnnn1)c1ccc(F)cc1F", "note": "(stereo not shown) [Example 55, 3-(5-(4-Chlorophenyl)pyridin-2-yl)-2-(2,4-difluorophenyl)-3-fluoro-1-(1H-tetrazol-1-yl)butan-2-ol]", "MIC": "1.5 to 4"}
{"smiles": "CC(F)(c1ccc(-c2ccc(OCC(F)(F)F)cc2)cn1)C(O)(Cn1cnnn1)c1ccc(F)cc1F", "note": "(stereo not shown) [Example 57, 2-(2,4-Difluorophenyl)-3-fluoro-1-(1H-tetrazol-1-yl)-3-(5-(4-(2,2,2-trifluoroethoxy)phenyl)pyridin-2-yl)butan-2-ol]", "MIC": "1.5 to 4"}
